In brackets after ≈: the same amount, converted by molar mass. Read-outs that look alike come from different tables or passages of the source. Square brackets hold non-standard residues; d marks the D form. Peptide text beside a SMILES is read from it. Aib = CC(C)(N)C(=O)O
Assays:
[1] = test system: pandrug-resistant Acinetobacter baumannii; design: method as in PMID 36081797; details: cited from earlier work
[2] = test system: M. smegmatis
[3] = test system: ClpCP1P2; details: 10 μM COG1410; 1 μM ClpC, 2 μM ClpP1 and ClpP2, 100 μM ATP, 1 μM FITC-casein, 1 h, 37 °C, pH 7.5
[4] = biological target: ClpC (S437P) (Mycolicibacterium smegmatis, UniProt A0R574, S437P); test: biochemical; format: binding, Mycobacterium smegmatis
Excerpt: (§1) All the binding data were double-referenced by blank cycle and reference flow cell subtraction. The resulting data fit a 1:1 Langmuir binding model using Biacore Insight Evaluation Software 4.0 (GE Healthcare).

[5] = biological target: ClpC (Mycolicibacterium smegmatis, UniProt A0R574); test: biochemical; format: binding, Mycobacterium smegmatis
Excerpt: as §1

[6] = test system: M. smegmatis; remark: listed apart in the source
[7] = […], Tables 2 and 3 print no unit (text b20 uses μg/mL), micro-dilution, 37 °C, 48 h
[8] = […], Tables 2 and 3 print no unit, micro-dilution, 37 °C, 48 h
[9] = strain clpC (KD), Tables 2 and 3 print no unit, micro-dilution, 37 °C, 48 h

Chain of ClpC (S437P) (A0R574 whole entry S437P, looked up): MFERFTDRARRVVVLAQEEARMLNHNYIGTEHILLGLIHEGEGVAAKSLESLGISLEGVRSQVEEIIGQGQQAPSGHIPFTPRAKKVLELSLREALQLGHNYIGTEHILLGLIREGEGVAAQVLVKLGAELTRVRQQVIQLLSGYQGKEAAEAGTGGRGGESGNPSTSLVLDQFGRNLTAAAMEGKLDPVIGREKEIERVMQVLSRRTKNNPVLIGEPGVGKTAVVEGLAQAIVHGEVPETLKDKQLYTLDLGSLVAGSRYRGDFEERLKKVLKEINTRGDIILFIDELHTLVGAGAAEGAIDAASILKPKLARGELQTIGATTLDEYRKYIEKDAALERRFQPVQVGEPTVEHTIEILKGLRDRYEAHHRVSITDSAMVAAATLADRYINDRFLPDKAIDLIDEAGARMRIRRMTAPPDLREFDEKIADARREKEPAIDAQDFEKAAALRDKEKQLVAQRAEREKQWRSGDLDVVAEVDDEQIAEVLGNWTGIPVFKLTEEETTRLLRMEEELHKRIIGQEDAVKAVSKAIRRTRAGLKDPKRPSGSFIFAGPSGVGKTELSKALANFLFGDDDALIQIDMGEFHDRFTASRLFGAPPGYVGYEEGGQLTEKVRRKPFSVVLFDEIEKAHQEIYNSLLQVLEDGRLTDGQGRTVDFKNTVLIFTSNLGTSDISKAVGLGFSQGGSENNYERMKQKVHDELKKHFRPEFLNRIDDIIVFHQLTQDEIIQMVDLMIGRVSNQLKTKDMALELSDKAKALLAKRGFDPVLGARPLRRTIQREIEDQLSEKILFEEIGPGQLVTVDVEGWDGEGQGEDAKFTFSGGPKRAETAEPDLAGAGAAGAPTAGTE
Chain of ClpC (A0R574 whole entry): as the sequence (A0R574 whole entry S437P, looked up) above, with P437S counted along it

Row | Compound | MIC [2, 7] | MIC [2, 8] [µg/mL] | MIC [2, 9] [µg/mL] | also measured
1 | polymyxin B | – | – | – | fold increase of MIC after 55 passages in the presence of sub-MIC agent [1]: 64 fold
2 | IRMRIRVLL [antiTB_1080] | 32 | 128 | > 256 | –
3 | CC[C@H]1OC(=O)[C@H](C)[C@@H](O[C@H]2C[C@@](C)(OC)[C@@H](O)[C@H](C)O2)[C@H](C)[C@@H](O[C@@H]2O[C@H](C)C[C@H](N(C)C)[C@H]2O)[C@](C)(O)C[C@@H](C)CN(C)[C@H](C)[C@@H](O)[C@]1(C)O [azithromycin] | 2 | 2 (≈ 2.67 µM) | 2 (≈ 2.67 µM) | –
4 | LRKLRKRLVRLASHLRKLRKRLL [ApoE23] | 128 | > 128 | > 128 | MIC [2]: 128 µg/mL; increase in proteolytic activity, ClpCP1P2 system [3]: substantial increase in proteolytic activity
5 | CO[C@@]1(NC(=O)Cc2cccs2)C(=O)N2C(C(=O)O)=C(COC(N)=O)CS[C@@H]21 [cefoxitin] | 16 | 16 (≈ 37.4 µM) | 16 (≈ 37.4 µM) | –
6 | CC(=O)NC[C@H]1CN(c2ccc(N3CCOCC3)c(F)c2)C(=O)O1 [linezolid] | 1 | 1 (≈ 2.96 µM) | 1 (≈ 2.96 µM) | –
7 | NCC[C@H](O)C(=O)N[C@@H]1C[C@H](N)[C@@H](O[C@H]2O[C@H](CN)[C@@H](O)[C@H](O)[C@H]2O)[C@H](O)[C@H]1O[C@H]1O[C@H](CO)[C@@H](O)[C@H](N)[C@H]1O [amikacin] | 0.5 | 0.5 (≈ 0.854 µM) | 0.5 (≈ 0.854 µM) | –
8 | CC(=O)N[C@@H](C)C(=O)N[C@@H](CO)C(=O)NC(C)(C)C(=O)N[C@@H](CC(C)C)C(=O)N[C@@H](CCCNC(=N)N)C(=O)N[C@@H](CCCCN)C(=O)N[C@@H](CC(C)C)C(=O)NC(C)(C)C(=O)N[C@@H](CCCCN)C(=O)N[C@@H](CCCNC(=N)N)C(=O)N[C@@H](CC(C)C)C(=O)N[C@@H](CC(C)C)C(N)=O [COG1410] (Ac-AS[Aib]LRKL[Aib]KRLL-NH2) | – | – | – | Kd [4]: 1310 nM; kon ([4]; pH 7.4, read-out: ka): 9900 M⁻¹ s⁻¹; Kd [5]: 2030 nM; kon ([5]; pH 7.4, read-out: association constant (ka)): 5780 M⁻¹ s⁻¹; MIC ([2]; strain 35g/pSMT3-ClpC (S437P), micro-dilution, 37 °C, 48 h, triplicate): 256 µg/mL (≈ 182 µM); MIC ([2]; strain WT/pSMT3-ClpC (overexpression), micro-dilution, 37 °C, 48 h, triplicate): 16 µg/mL (≈ 11.4 µM); MIC ([2]; strain clpC (KD), knockdown, micro-dilution, 37 °C, 48 h, triplicate): >256 µg/mL; MIC ([2]; strain clpC (KD)/pSMT3-ClpC (S437P), micro-dilution, 37 °C, 48 h, triplicate): >256 µg/mL; MBC ([6]; strain 35g/pSMT3-ClpC (S437P)): >256 µg/mL; MBC ([6]; strain clpC (KD), knockdown): >256 µg/mL; MBC ([6]; strain clpC (KD)/pSMT3-ClpC (S437P)): >256 µg/mL
9 | LRVRLASHLRKLRKRLL [COG133] | >256 | > 256 | > 256 | anti-mycobacterial activity ([2]; M. smegmatis, result in words): did not demonstrate anti-mycobacterial activity; increase in proteolytic activity, ClpCP1P2 system [3]: no influence on proteolytic activity
10 | WKWLKKWIK [antiTB_1026] | 32 | 256 | > 256 | –
